Laboratory results reported in patent publication US6004952A, “Micacocidin derivatives” (Shinogi & Co., Ltd., priority 1996, dated 1999).
Converted amounts (≈) assume the structure as drawn. Like-named read-outs stand apart in the source and are kept apart here.

How the values were obtained:
Eimeria tenella = test: Growth inhibition activities to avian coccidium in primary chicken kidney cells; assay type: cell-based; settings: Eimeria tenella; more than 80% of suppression rate regarded as effective; read-out: Effective dose (growth inhibition)
Experimental: The kidneys of SPF new born chicken was sterilely removed, which was treated with trypsin and the resultant primary kidney cells were cultured in 24-well plate. Monolayer culture after cultured for 3 days was treated simultaneously with compounds adjusted to predetermined concentration and sporozoit obtained by artificial excystation, which was cultured a 40° C. Premature and mature schizonts were observed under microscope, and the growth inhibition activities (suppression rate) for each treatment group were calculated at a proportion of the number of schizonts for the sporozoit-inoculated, compound-untreated control group (100%).

[1] = Cytotoxicity to primary chicken kidney culture cells; assay type: cell-based; settings: primary chicken kidney cells
Candida albicans = test: Antifungal activity, micro-liquid dilution method, Candida albicans; assay type: cell-based, Candida albicans strain Ca-15; settings: Candida albicans, 24 h, 30° C., read-out: Antifungal activities: IC50
Experimental: (§1) Antifungal activities of the compounds to Candida albicans (strain Ca-15) and Asperilhm fumigatus (strain MA), representative pathogenic fungi, were determined by micro-liquid dilution method using 96-well microplates. A fungal suspension stored under freezing was adjusted to 1×1 O^5 CFU/ml by medium, of which 100 μl portions were charged into each well. The compound of the present invention was dissolved in dimethylsulfoxide (DMSO). Using the resultant solution, 2-fold dilution series were prepared together with the fungal suspension charged into the wells. YNB medium and RPMI medium were used. After cultured for 24 hours at 30° C., evaluation was performed by detecting the turbidity (wave length: 595 nm) using microplate reader.

Aspergillus fumigatus = test: Antifungal activity, micro-liquid dilution method, Aspergillus fumigatus; assay type: cell-based, Aspergillus fumigatus strain MA; settings: Aspergillus fumigatus, 24 h, 30° C., read-out: Antifungal activities: IC50
Experimental: as §1

Mycoplasma = test: MIC to Mycoplasmas (summary in words); assay type: cell-based
M. pneumoniae = test: MIC, liquid dilution method, Mycoplasma pneumoniae; settings: Mycoplasmoides pneumoniae
M. gallisepticum = test: MIC, liquid dilution method, Mycoplasma gallisepticum; settings: Mycoplasmoides gallisepticum
M. hyopneumoniae = test: MIC, liquid dilution method, Mycoplasma hyopneumoniae; settings: Mesomycoplasma hyopneumoniae
mice spleen cells [2] = test: Suppression of reaction of mice spleen cells to Concanavalin A, in vitro (MTT); assay type: cell-based, BDF1 mice
Experimental: (§2) To each well of 96 well microtiter plate were added 5×10^5 spleen cells of BDF1 mice suspended in 0.1 ml of RPMI 1640 medium supplemented with 10% bovine fetus serum (supplemented with 2 mM sodium hydrogen carbonate, 50 Units/ml of penicillin, 50 μg/ml of streptomycin, and 5×10^-5 M of 2-mercaptoethanol), and then, 5 μg/ml of Concanavalin A (Con A) or 10 μg/ml of lypopolysaccaride (LPS) and various concentrations of test substance, of which final volume was adjusted to 0.2 ml. Test substances were dissolved in dimethylsulfoxide (DMSO), diluted with RPMI 1640 stated above, and added to the wells so that final concentration of the substances becomes less than 10000 ng/ml. The 96-well microtiter plates were cultured at 37° C. for 3 days in an incubator which was maintained at the humidity of 100%, 5% of carbon dioxide and 95% of air. After cultivation is completed, […] of 6 mg/ml solution of MTT {3-(4,5-dimethylthiazol-2yl)-2,5 diphenyltetrazoliumbromide} (Sigma) is added to each well, which is cultured at 37° C. for […] under the same conditions. After cultivation is completed, formazan formed is dissolved by adding 50 μl of a solution of 20% dodecyl sodium sulfonate (SDS) in 0.02N hydrochloric acid and kept standing at 37° C. for 24 hours. The absorbance (OD) of the formazan which was produced in proportion to the number of alive cells, was determined by using immunoreader equipped with 570 nm filter (see The Journal of Immunological Methods, Vol.65, 55-63, 1983).
(§3) Cell growth inhibition rate and IC50 value were calculated according to the correlation between the concentration and the absorbance for each substance.

mice spleen cells [3] = test: Suppression of reaction of mice spleen cells to lypopolysaccaride (LPS), in vitro (MTT); assay type: cell-based, BDF1 mice
Experimental: as §2, §3

With `CCCCCc1cccc(OCc2ccc(Cl)cc2)c1C1=NC(C2SCC(C(O)C(C)(C)C3=NC(C)(C(=O)OC)CS3)N2C)CS1` (centres unmarked) [Compound 11] the minimal effective concentration (Eimeria tenella) was 10 µg/mL and the MCC [1] was > 10 µg/mL.
For `CCCCCc1cccc(OC(C)=O)c1C1=NC(C2SCC(C(OC(C)=O)C(C)(C)C3=NC(C)(C(=O)OC)CS3)N2C)CS1` (centres unmarked) [Compound 10], the minimal effective concentration (Eimeria tenella) was > 10 µg/mL and the MCC [1] was > 10 µg/mL.
Compound `CCCCCc1cccc(O)c1C1=NC(C2SCC(C(O)C(C)(C)C3=NC(C)(C(=O)O)CS3)N2C)CS1` (centres unmarked) [Compound 2] has an IC50 (Candida albicans; RPMI medium) of 1.6 µg/mL (≈ 2.83 µM), an IC50 (Candida albicans; YNB medium) of 6.3 µg/mL (≈ 11.1 µM) and an IC50 (Aspergillus fumigatus; RPMI medium) of 0.2 µg/mL (≈ 0.353 µM). It also gave an IC50 (Aspergillus fumigatus; YNB medium) of 3.2 µg/mL (≈ 5.66 µM), a minimal effective concentration (Eimeria tenella) of 2.5 µg/mL and an MCC [1] of 10 µg/mL.
With `CCCCCc1cccc(O)c1C1=NC(C2SCC(C(O)C(C)(C)C3=NC(C)(C(=O)OC)CS3)N2C)CS1` (centres unmarked) [Compound 12] the “MICs to Mycoplasmas” value (Mycoplasma) was “low MICs”, the minimal effective concentration (Eimeria tenella) was 0.625 µg/mL and the MCC [1] was > 10 µg/mL. The MIC (M. pneumoniae) was ≤ 0.00625 µg/mL, the MIC (M. gallisepticum) was 0.2 µg/mL (≈ 0.345 µM) and the MIC (M. hyopneumoniae) was ≤ 0.025 µg/mL.
For `CCCCCc1cccc(O)c1C1=NC(C2SCC(C(OCc3ccc(Cl)cc3)C(C)(C)C3=NC(C)(C(=O)O)CS3)N2C)CS1` (centres unmarked) [Compound 6], the “suppression of the reaction to Con A of spleen cells” value (mice spleen cells [2]) was “suppressed”, the inhibition at 0.156 µg/mL (mice spleen cells [2]; Mus musculus, 72 h, Con A, 156 ng/ml, read-out: Suppression rate) was 0% and the inhibition at 0.312 µg/mL (mice spleen cells [2]; Mus musculus, 72 h, Con A, 312 ng/ml, read-out: Suppression rate) was 16.5%. For the same compound, the inhibition at 0.625 µg/mL (mice spleen cells [2]; Mus musculus, 72 h, Con A, 625 ng/ml, read-out: Suppression rate) was 87.4%, the inhibition at 1.25 µg/mL (mice spleen cells [2]; Mus musculus, 72 h, Con A, 1250 ng/ml, read-out: Suppression rate) was 98.6% and the inhibition at 2.5 µg/mL (mice spleen cells [2]; Mus musculus, 72 h, Con A, 2500 ng/ml, read-out: Suppression rate) was 102%. For the same compound, the IC50 (mice spleen cells [2]; Mus musculus, Con A) was 0.399 µg/mL (≈ 0.578 µM), the “suppression of the reaction to LPS of spleen cells” value (mice spleen cells [3]) was “suppressed” and the inhibition at 0.156 µg/mL (mice spleen cells [3]; Mus musculus, 72 h, LPS, 156 ng/ml, read-out: Suppression rate) was 17.7%. For the same compound, the inhibition at 0.312 µg/mL (mice spleen cells [3]; Mus musculus, 72 h, LPS, 312 ng/ml, read-out: Suppression rate) was 24.4%, the inhibition at 0.625 µg/mL (mice spleen cells [3]; Mus musculus, 72 h, LPS, 625 ng/ml, read-out: Suppression rate) was 84.3% and the inhibition at 1.25 µg/mL (mice spleen cells [3]; Mus musculus, 72 h, LPS, 1250 ng/ml, read-out: Suppression rate) was 98%. The inhibition at 2.5 µg/mL (mice spleen cells [3]; Mus musculus, 72 h, LPS, 2500 ng/ml, read-out: Suppression rate) was 105% and the IC50 (mice spleen cells [3]; Mus musculus, LPS) was 0.368 µg/mL (≈ 0.533 µM).
`CCCCCc1cccc(O)c1C1=NC(C2SCC(C(O)C(C)(C)C3=NC(C)(C(N)=O)CS3)N2C)CS1` (centres unmarked) [Compound 31] showed an MCC [1] of 10 µg/mL, an MIC (M. pneumoniae) of 0.2 µg/mL (≈ 0.354 µM) and an MIC (M. gallisepticum) of 0.39 µg/mL (≈ 0.69 µM). It also gave an MIC (M. hyopneumoniae) of 0.2 µg/mL (≈ 0.354 µM).
For `CCCCCc1cccc(OCc2ccc(Cl)cc2)c1C1=NC(C2SCC(C(OCc3ccc(Cl)cc3)C(C)(C)C3=NC(C)(C(=O)OCc4ccc(Cl)cc4)CS3)N2C)CS1` (centres unmarked) [Compound 21], the minimal effective concentration (Eimeria tenella) was > 10 µg/mL and the MCC [1] was > 10 µg/mL.
For `CCCCCc1cccc(O)c1C1=NC(C2SCC(C(OC(C)=O)C(C)(C)C3=NC(C)(C(=O)O)CS3)N2C)CS1` (centres unmarked) [Compound 3], the minimal effective concentration (Eimeria tenella) was 10 µg/mL and the MCC [1] was > 10 µg/mL.
